Laboratory results: ChEMBL document CHEMBL1201862, “PubChem BioAssay data set” (2004)
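Dose response: 5 concentrations. Exposure: 48 h. Format: 96-well plates. Endpoint: linear interpolation; highest concentration if not reached. GI50: concentration for 50% inhibition of growth.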 Active and inactive are the calls of the source. Rule as the data show it: active = GI50 up to about 1.1 µM and inactive = higher.

How the values were obtained:
Assay in all cases: growth of human tumour cells (NCI), 48 h
786-0 = test system: 786-0
A549 = test system: A549
CCRF-CEM = test system: CCRF-CEM
HL-60 = test system: HL-60
K562 = test system: K562
MOLT-4 = test system: MOLT-4
OVCAR-4 = test system: OVCAR-4
OVCAR-5 = test system: OVCAR-5
SF-295 = test system: SF-295
SF-539 = test system: SF-539
SK-MEL-5 = test system: SK-MEL-5
SNB-19 = test system: SNB-19
SNB-75 = test system: SNB-75
SR = test system: SR
TK-10 = test system: TK-10
UACC-62 = test system: UACC-62
HCC 2998 = test system: HCC 2998
HT-29 = test system: HT-29
A498 = test system: A498

Compound | GI50 (786-0) | GI50 (A549) | GI50 (CCRF-CEM) | GI50 (HL-60) | GI50 (K562) | GI50 (MOLT-4) | GI50 (OVCAR-4) | GI50 (OVCAR-5) | GI50 (SF-295) | GI50 (SF-539) | GI50 (SK-MEL-5) | GI50 (SNB-19) | GI50 (SNB-75) | GI50 (SR) | GI50 (TK-10) | GI50 (UACC-62) | GI50 (HCC 2998) | GI50 (HT-29) | GI50 (A498)
C[C@@]1(Cc2ccccc2)C(=O)N2[C@@H](CO)C(c3ccccc3)O[C@]2(C)c2ccccc21 (stereo not given in full) | 52.7 µM (inactive) | > 100 µM (inactive) | 81.1 µM (inactive) | > 100 µM (inactive) | > 100 µM (inactive) | 32.3 µM (inactive) | > 100 µM (inactive) | > 100 µM (inactive) | 72.4 µM (inactive) | > 100 µM (inactive) | > 100 µM (inactive) | > 100 µM (inactive) | 32 µM (inactive) | > 100 µM (inactive) | > 100 µM (inactive) | > 100 µM (inactive) |  |  | 
CC(=O)OCC(=O)[C@@]1(O)CC[C@H]2[C@@H]3C[C@H](C)C4=CC(=O)C=C[C@]4(C)[C@@]3(F)[C@@H](O)C[C@@]21C | > 100 µM (inactive) | > 100 µM (inactive) | 5.33 µM (inactive) | > 100 µM (inactive) | > 100 µM (inactive) | 68.7 µM (inactive) | > 100 µM (inactive) | 12.9 µM (inactive) | > 100 µM (inactive) | > 100 µM (inactive) | > 100 µM (inactive) | > 100 µM (inactive) | 73.8 µM (inactive) | 96.4 µM (inactive) | > 100 µM (inactive) | 80.4 µM (inactive) | > 100 µM (inactive) | > 100 µM (inactive) | 
COc1cc(C2c3cc4c(cc3OC(NNC(N)=O)C2C)OCO4)cc(OC)c1OC (stereo not given) | 0.185 µM (active) | 0.276 µM (active) | 0.109 µM (active) | 0.11 µM (active) | 0.0817 µM (active) | 0.235 µM (active) | 11.8 µM (inactive) |  | 0.114 µM (active) | 0.0689 µM (active) | 0.123 µM (active) | 0.452 µM (active) | 0.18 µM (active) | 0.0826 µM (active) | 34.7 µM (inactive) | 0.179 µM (active) | 0.373 µM (active) | 0.145 µM (active) | 0.0233 µM (active)
CCOC(=O)C(=O)C=P(c1ccccc1)(c1ccccc1)c1ccccc1 | > 100 µM (inactive) | > 100 µM (inactive) | > 100 µM (inactive) | > 100 µM (inactive) | > 100 µM (inactive) | > 100 µM (inactive) | > 100 µM (inactive) | > 100 µM (inactive) | > 100 µM (inactive) | > 100 µM (inactive) | > 100 µM (inactive) | > 100 µM (inactive) | > 100 µM (inactive) | > 100 µM (inactive) | > 100 µM (inactive) | > 100 µM (inactive) | > 100 µM (inactive) | > 100 µM (inactive) | > 100 µM (inactive)
O=C1c2ccccc2C(=O)c2c1ccc(O)c2O [ATHRAQUINONES A] | 63 µM (inactive) | > 10 µM (inactive) | 36.6 µM (inactive) |  | 36.1 µM (inactive) | 32.4 µM (inactive) | 32.1 µM (inactive) | > 100 µM (inactive) | 57.3 µM (inactive) | 42.6 µM (inactive) |  | 61.2 µM (inactive) | 28.2 µM (inactive) | 34.8 µM (inactive) | > 100 µM (inactive) | 25.4 µM (inactive) | 33.1 µM (inactive) | 36 µM (inactive) | 39.5 µM (inactive)
COC[n+]1cc2cc(OC)c(OC)cc2c2ccc3cc(OC)c(OC)cc3c21 | > 100 µM (inactive) | > 100 µM (inactive) | 98.2 µM (inactive) | > 100 µM (inactive) | > 100 µM (inactive) | > 100 µM (inactive) | > 100 µM (inactive) | > 100 µM (inactive) | > 100 µM (inactive) | > 100 µM (inactive) | > 100 µM (inactive) | > 100 µM (inactive) | > 100 µM (inactive) | > 10 µM (inactive) | > 100 µM (inactive) | > 100 µM (inactive) | > 100 µM (inactive) | > 100 µM (inactive) | 
O=C1C2c3[nH]c4ccccc4c3C3CCCC3C2C(=O)N1c1ccccc1 (stereo not given) | > 100 µM (inactive) | > 100 µM (inactive) | > 100 µM (inactive) |  | > 100 µM (inactive) | > 100 µM (inactive) | 17.1 µM (inactive) |  | > 100 µM (inactive) | > 100 µM (inactive) | > 100 µM (inactive) |  | 40.6 µM (inactive) | > 100 µM (inactive) | > 100 µM (inactive) | > 100 µM (inactive) | > 100 µM (inactive) | > 100 µM (inactive) | > 100 µM (inactive)
CC(C)COC(=O)c1ccc(/N=C\c2ccc(/C=N/c3ccc(C(=O)OCC(C)C)cc3)cc2)cc1 | > 100 µM (inactive) | > 100 µM (inactive) |  | > 100 µM (inactive) | > 100 µM (inactive) | > 100 µM (inactive) | > 100 µM (inactive) | > 100 µM (inactive) | > 100 µM (inactive) | > 100 µM (inactive) |  | > 100 µM (inactive) | > 100 µM (inactive) | > 100 µM (inactive) | > 100 µM (inactive) | > 100 µM (inactive) | > 100 µM (inactive) | > 100 µM (inactive) | 
CCN(CC)Cc1ccc(C(=S)Nc2ccc(C)cc2)s1 | 15.5 µM (inactive) | 16.6 µM (inactive) | 8.83 µM (inactive) | 9.66 µM (inactive) | 6.59 µM (inactive) | 13 µM (inactive) | 21.6 µM (inactive) | 14.8 µM (inactive) | 13.8 µM (inactive) | 20.4 µM (inactive) | 13.4 µM (inactive) | 19 µM (inactive) |  | 12.1 µM (inactive) |  | 14.2 µM (inactive) | 12.9 µM (inactive) | 4.08 µM (inactive) | 13.3 µM (inactive)
O=C(CCc1ccccc1)On1nnc2ccccc2c1=O | > 100 µM (inactive) | > 100 µM (inactive) | > 100 µM (inactive) | > 100 µM (inactive) | > 100 µM (inactive) | > 100 µM (inactive) | > 100 µM (inactive) | > 100 µM (inactive) | > 100 µM (inactive) | > 100 µM (inactive) | > 100 µM (inactive) | > 100 µM (inactive) | > 100 µM (inactive) | > 100 µM (inactive) | 26.5 µM (inactive) | > 100 µM (inactive) | > 100 µM (inactive) | > 100 µM (inactive) | 38.3 µM (inactive)
CN(C)C(=O)Oc1ccc(C(=S)Nc2ccccc2)cc1Br | 62.8 µM (inactive) | 33 µM (inactive) | 21 µM (inactive) | 16.8 µM (inactive) | 18.7 µM (inactive) | 13.2 µM (inactive) | 19.1 µM (inactive) | 41.9 µM (inactive) | 5.11 µM (inactive) | 72.3 µM (inactive) | 16.9 µM (inactive) | 74.6 µM (inactive) |  | 16.1 µM (inactive) |  | 20.3 µM (inactive) | 33.1 µM (inactive) | 21.4 µM (inactive) | 
NCCNC(=O)c1cccc2cc3ccccc3nc12 | 7.6 µM (inactive) | 1.27 µM (inactive) |  |  | 2.15 µM (inactive) | 0.333 µM (active) | 3.75 µM (inactive) | 3.74 µM (inactive) | 2.94 µM (inactive) | 4.35 µM (inactive) | 2.23 µM (inactive) | 4.09 µM (inactive) | 5.26 µM (inactive) | 0.439 µM (active) | 2.3 µM (inactive) | 2.75 µM (inactive) | 2.65 µM (inactive) | 1.87 µM (inactive) | 1.81 µM (inactive)
Nc1nc(Cl)cc(NCCCCCCCCCCNc2cc(Cl)nc(N)n2)n1 | 21.5 µM (inactive) | 3.21 µM (inactive) | 18.9 µM (inactive) | 2.34 µM (inactive) | 0.0897 µM (active) |  | 8.13 µM (inactive) | 0.043 µM (active) | 0.301 µM (active) | 22.1 µM (inactive) | 0.0982 µM (active) | 75 µM (inactive) | 22.6 µM (inactive) | 2.62 µM (inactive) | 16.5 µM (inactive) | 0.0226 µM (active) | 22.8 µM (inactive) | 8.93 µM (inactive) | 
C[C@H](CCC1SC1(C)C)C1CCC2(C)C3=C(CC[C@]12C)[C@@]1(C)CC[C@H](O)C(C)(C)C1CC3 (stereo not given in full) | > 100 µM (inactive) | > 100 µM (inactive) | > 100 µM (inactive) | > 100 µM (inactive) | > 100 µM (inactive) | > 100 µM (inactive) | > 100 µM (inactive) | > 100 µM (inactive) | > 100 µM (inactive) |  | > 100 µM (inactive) | > 100 µM (inactive) | 75.2 µM (inactive) | > 100 µM (inactive) | > 100 µM (inactive) | > 100 µM (inactive) | > 100 µM (inactive) | > 100 µM (inactive) | > 100 µM (inactive)
O=[N+]([O-])c1cccc2c(/N=N/c3ccc4ccccc4c3O)c(O)cc(S(=O)(=O)O)c12 | 17.8 µM (inactive) | 32.7 µM (inactive) | 3.05 µM (inactive) | 4.21 µM (inactive) | > 100 µM (inactive) | 5.21 µM (inactive) | 57.9 µM (inactive) | 34.8 µM (inactive) | 20.9 µM (inactive) |  | 31 µM (inactive) | > 100 µM (inactive) | 44 µM (inactive) | 2.82 µM (inactive) | 49.7 µM (inactive) | 7.78 µM (inactive) |  | 34.1 µM (inactive) | 
COc1cc(/C=C(\NC(=O)c2ccccc2)c2nc3cncnc3[nH]2)cc(OC)c1OC | > 100 µM (inactive) | > 100 µM (inactive) | > 100 µM (inactive) | > 100 µM (inactive) | > 100 µM (inactive) | > 100 µM (inactive) | > 100 µM (inactive) | > 100 µM (inactive) | > 100 µM (inactive) | > 100 µM (inactive) | > 100 µM (inactive) | > 100 µM (inactive) |  | > 100 µM (inactive) | > 100 µM (inactive) | > 100 µM (inactive) | > 100 µM (inactive) | > 100 µM (inactive) | 
